Reference: patent US6500846B1, “CDK inhibitors having flavone structure” (LG Chemical, Ltd., priority 1998, dated 2002)

Legend:
in vivo = details: male, ICR, mouse, po
Description: The acute oral toxcities of the compounds 14, 17, 28, 39, 51 and 57 each of which is obtained in Examples 14, 17, 73,84, 96 and 102, respectively are investigated in the following.
Solutions containing a compound in several different concentrations from each other were prepared, and they were administered orally to ICR male mouse with a dose of 10 ml/kg.
After administration, lethality and symptoms for 7 days were observed, and LD50 (mg/kg) was calculated according to Litchfield-Wilcoxon' method.

CDK2/cyclin A = molecular target: T1, CDK2/cyclin A (Homo sapiens, UniProt P24941); assay: Inhibitory activity against CDK2/cyclin A enzyme (GST-RB phosphorylation, P32-γ-ATP, scintillation counting); format: biochemical; details: 100 μM ATP, GST-RB substrate, 30° C. 30 minutes
T1 construct: made in house; host or cells: insect cells infected with baculoviruses
Description: (§1) Analysis of inhibitory activity against CDK2/cyclin A and CDK4/cyclin D1 enzyme.
(§2) The inhibitory activity against CDK2 is measured by referring to Kitagawa, M. et al., Oncogene 9:2549, 1994 and the inhibitory activity against CDK4 is measured by referring to Carlson, B. A. et al., Cancer Research 56:2473,1996.
(§3) As for CDK2, either the extract from the insect cell infected both with baculovirus which expresses CDK2 gene and baculovirus which expresses cyclin A gene or the active enzyme which had been purified therefrom was used. CDK4 enzyme was also obtained from the insect cell infected both with baculovirus expressing CDK4 gene and baculovirus expressing cyclin D1 gene. As the substrate for CDK2, either histon H1 or Rb protein was used. Rb protein was also used as the substrate for CDK4.
(§4) Specifically the activities of enzymes CDK2/cyclin A and CDK4/cyclin D1 were determined according to the following procedure.
(§5) 100 ng of enzyme was reacted in a total 1000 μl of 20 mM Tris (pH 8.0), 100 mM NaCl, 10 mM MgCl2 buffer solution containing 20 μg of GST-RB protein, 100 μM of ATP and 5 μCi of P32-γ-ATP at 30° C. for 30 minutes. Then, the enzyme reaction was stopped by adding EDTA to a concentration of 20 mM. Subsequently, 30 μl of 50% glutathione bead (purchased from Pharmacia) was added to attach GST-RB to the bead, which was washed three times with 20mM Tris (pH 8.0), 100 mM NaCl, 10 mM EDTA solution, and then scintillation counting was carried out. To analyze the inhibitory activity of the compound, the inhibitor having a proper concentration was added to the enzyme reaction solution, and then the enzyme activity was measured according to the above method.
(§6) The inhibitory activity of the compound of formula (1) according to the present invention against CDK2 and CDK4 is represented as IC50 value. The compounds which are not included in Examples(compound 63, 64, 65 and 66) were synthesized and purified according to the same procedure as examples, and then IC50 thereof was measured.

CDK4/cyclin D1 = molecular target: T2, CDK4/cyclin D1 (Homo sapiens, UniProt P11802); assay: Inhibitory activity against CDK4/cyclin D1 enzyme (GST-RB phosphorylation, P32-γ-ATP, scintillation counting); format: biochemical; details: CDK4/cyclin D1, 100 μM ATP, GST-RB substrate, 30° C. 30 minutes
T2 construct: made in house; host or cells: insect cells infected with baculoviruses
T2 sequence (P11802 whole entry, species assumed): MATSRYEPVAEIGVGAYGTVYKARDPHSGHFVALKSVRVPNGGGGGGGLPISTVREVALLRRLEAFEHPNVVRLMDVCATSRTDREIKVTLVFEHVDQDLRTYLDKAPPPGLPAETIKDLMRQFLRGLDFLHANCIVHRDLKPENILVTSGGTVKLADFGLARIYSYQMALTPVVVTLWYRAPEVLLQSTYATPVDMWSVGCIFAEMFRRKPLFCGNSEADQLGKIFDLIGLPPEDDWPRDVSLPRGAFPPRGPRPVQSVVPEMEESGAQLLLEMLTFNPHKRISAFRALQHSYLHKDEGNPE
T2 sequence (P24385 whole entry partner, species assumed): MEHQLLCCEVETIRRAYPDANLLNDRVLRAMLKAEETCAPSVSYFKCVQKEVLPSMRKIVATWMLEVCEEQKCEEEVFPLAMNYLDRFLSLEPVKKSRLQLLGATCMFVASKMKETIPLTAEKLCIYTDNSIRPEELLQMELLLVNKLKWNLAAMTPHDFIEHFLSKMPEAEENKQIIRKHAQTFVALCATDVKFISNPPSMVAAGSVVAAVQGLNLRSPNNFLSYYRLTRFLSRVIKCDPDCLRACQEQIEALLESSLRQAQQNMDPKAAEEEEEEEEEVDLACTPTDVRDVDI
Description: as §1, §2, §3, §4, §5, §6

IC50 (CDK2/cyclin A)	IC50 (CDK4/cyclin D1)	Compound	LD50 at 7 days (in vivo)
31 µM	1.6 µM	CN1CCN(c2ccc(S(=O)(=O)Nc3ccc4oc(-c5ccc(O)c(O)c5)c(O)c(=O)c4c3)cc2[N+](=O)[O-])CC1 [Compound 49, N-[2-(3,4-dihydroxyphenyl)-3-hydroxy-4-oxo-4H-chromen-6-yl]-4-(4-methyl-1-piperazinyl)-3-nitrobenzenesulfonamide]	
> 200 µM	30 µM	CN1CCN(c2ccc(S(=O)(=O)Nc3ccc4oc(-c5ccc(O)c(O)c5)c(O)c(=O)c4c3)cc2N)CC1 [Compound 50, 3-amino-N-[2-(3,4-dihydroxyphenyl)-3-hydroxy-4-oxo-4H-chromen-6-yl]-4-(4-methyl-1-piperazinyl)benzenesulfonamide]	
23 µM	6 µM	O=C(Nc1ccc2oc(-c3ccc(O)c(O)c3)c(O)c(=O)c2c1)c1ccccc1 [Compound 52, N-[2-(3,4-dihydroxyphenyl)-3-hydroxy-4-oxo-4H-chromen-6-yl]benzamide]	
> 100 µM	5.6 µM	O=C(Nc1ccc2oc(-c3ccc(O)c(O)c3)c(O)c(=O)c2c1)c1ccc(Cl)cc1 [Compound 53, 4-chloro-N-[2-(3,4-dihydroxyphenyl)-3-hydroxy-4-oxo-4H-chromen-6-yl]benzamide]	
2.3 µM	2.8 µM	O=C(NCc1ccccc1)Nc1ccc2oc(-c3ccc(O)c(O)c3)c(O)c(=O)c2c1 [Compound 54, N-benzyl-N′-[2-(3,4-dihydroxyphenyl)-3-hydroxy-4-oxo-4H-chromen-6-yl]urea]	
1.3 µM	0.7 µM	O=C(Nc1ccc(Br)cc1)Nc1ccc2oc(-c3ccc(O)c(O)c3)c(O)c(=O)c2c1 [Compound 55, N-(4-bromophenyl)-N′-[2-(3,4-dihydroxyphenyl)-3-hydroxy-4-oxo-4H-chromen-6-yl]urea]	
5 µM	4.2 µM	O=C(Nc1ccccc1)Nc1ccc2oc(-c3ccc(O)c(O)c3)c(O)c(=O)c2c1 [Compound 56, N-[2-(3,4-dihydroxyphenyl)-3-hydroxy-4-oxo-4H-chromen-6-yl]-N′-phenylurea]	
4.2 µM	4.2 µM	O=C(Nc1cccc(Br)c1)Nc1ccc2oc(-c3ccc(O)c(O)c3)c(O)c(=O)c2c1 [Compound 58, N-(3-bromophenyl)-N′-[2-(3,4-dihydroxyphenyl)-3-hydroxy-4-oxo-4H-chromen-6-yl]urea]	
20 µM	10 µM	O=C(Nc1ccc2oc(-c3ccc(O)c(O)c3)c(O)c(=O)c2c1)Nc1ccc(Cl)cc1Cl [Compound 59, N-(2,4-dichlorophenyl)-N′-[2-(3,4-dihydroxyphenyl)-3-hydroxy-4-oxo-4H-chromen-6-yl]-urea]	
4.7 µM	2.7 µM	N#Cc1cccc(NC(=O)Nc2ccc3oc(-c4ccc(O)c(O)c4)c(O)c(=O)c3c2)c1 [Compound 60, N-(3-cyanophenyl)-N′-[2-(3,4-dihydroxyphenyl)-3-hydroxy-4-oxo-4H-chromen-6-yl]urea]	
5.6 µM	1.7 µM	O=C(Nc1ccc([N+](=O)[O-])cc1)Nc1ccc2oc(-c3ccc(O)c(O)c3)c(O)c(=O)c2c1 [Compound 61, N-[2-(3,4-dihydroxyphenyl)-3-hydroxy-4-oxo-4H-chromen-6-yl]-N′-(4-nitrophenyl)urea]	
2.6 µM	2.3 µM	Nc1ccc(NC(=O)Nc2ccc3oc(-c4ccc(O)c(O)c4)c(O)c(=O)c3c2)cc1 [Compound 62, N-(4-aminophenyl)-N′-[2-(3,4-dihydroxyphenyl)-3-hydroxy-4-oxo-4H-chromen-6-yl]urea]	
< 10 µM	< 10 µM	O=c1c(O)c(-c2ccc(O)c(O)c2)oc2ccccc12 [Compound 63, 2-(3,4-dihydroxyphenyl)-3-hydoxy-4H-chromen-4-one]	
< 5 µM	< 10 µM	O=c1c(O)c(-c2ccc(O)c(O)c2)oc2cc(O)ccc12 [Compound 64, 2-(3,4-dihydroxyphenyl)-3,7-dihydroxy-4H-chromen-4-one]	
< 50 µM	< 50 µM	O=c1c(O)c(-c2ccc(O)c(O)c2)oc2cc(O)cc(O)c12 [Compound 65, 2-(3,4-dihydroxyphenyl)-3,5,7-trihydroxy-4H-chromen-4-one]	
< 10 µM	< 10 µM	O=c1c(O)c(-c2ccc(O)c(O)c2)oc2c(O)c(O)ccc12 [Compound 66, 2-(3,4-dihydroxyphenyl)-3,7,8-trihydroxy-4H-chromen-4-one]	

Compound	IC50 (CDK2/cyclin A)	IC50 (CDK4/cyclin D1)	LD50 at 7 days (in vivo)
O=c1c(O)c(-c2ccc(O)c(O)c2)oc2ccc(O)cc12 [Compound 14, 2-(3,4-dihydroxyphenyl)-3,6-dihydroxy-4H-chromen-4-one]	< 5 µM	< 5 µM	> 3000 mg/kg
O=c1c(O)c(-c2ccc(O)c(O)c2)oc2ccc(F)cc12 [Compound 17, 6-fluoro-2-(3,4-dihydroxyphenyl)-3-hydroxy-4H-chromen-4-one]	< 10 µM	< 10 µM	> 3000 mg/kg
Cc1ccc(S(=O)(=O)Nc2ccc3oc(-c4ccc(O)c(O)c4)c(O)c(=O)c3c2)cc1 [Compound 28, N-[2-(3,4-dihydroxyphenyl)-3-hydroxy-4-oxo-4H-chromen-6-yl]-4-methylbenzenesulfonamide]	56 µM	7.8 µM	> 3000 mg/kg
O=c1c(O)c(-c2ccc(O)c(O)c2)oc2ccc(NS(=O)(=O)c3ccc(C(F)(F)F)cc3)cc12 [Compound 39, N-[2-(3,4-dihydroxyphenyl)-3-hydroxy-4-oxo-4H-chromen-6-yl]-4-(trifluoromethyl)benzenesulfonamide]	55 µM	6.4 µM	> 3000 mg/kg
CC(=O)Nc1ccc2oc(-c3ccc(O)c(O)c3)c(O)c(=O)c2c1 [Compound 51, N-[2-(3,4-dihydroxyphenyl)-3-hydroxy-4-oxo-4H-chromen-6-yl]acetamide]	5.6 µM	5.6 µM	> 3000 mg/kg
O=C(NC(=O)c1ccccc1)Nc1ccc2oc(-c3ccc(O)c(O)c3)c(O)c(=O)c2c1 [Compound 57, N-benzoyl-N′-[2-(3,4-dihydroxyphenyl)-3-hydroxy-4-oxo-4H-chromen-6-yl]urea]	22.4 µM	18 µM	> 3000 mg/kg
